Laboratory results published in patent publication US12698507B2, “Methods and compositions for conferring and/or enhancing herbicide tolerance using protoporphyrinogen IX oxidase of various cyanobacteria or variant thereof” (FarmHannong Co., Ltd., priority 2019, dated 2026).
Read-outs that look alike come from different tables or passages of the source.

How the values were obtained:
[1] = molecular target: Thermosynechococcus vulcanus NIES-2134 protoporphyrinogen IX oxidase CyPPO18 (SEQ ID NO: 3) variant L327T (MBP fusion) (Thermosynechococcus vestitus, UniProt Q8DLV2, L327T); experiment: PPO enzyme inhibition assay (IC50 for herbicides), CyPPO18 L327T fused to MBP; assay type: biochemical; conditions: 50 μM protoporphyrinogen IX, pH 7.5, room temperature, 30 min
Thermosynechococcus vulcanus NIES-2134 protoporphyrinogen IX oxidase CyPPO18 (SEQ ID NO: 3) variant L327T (MBP fusion), sequence (Q8DLV2 entry or part of it L327T): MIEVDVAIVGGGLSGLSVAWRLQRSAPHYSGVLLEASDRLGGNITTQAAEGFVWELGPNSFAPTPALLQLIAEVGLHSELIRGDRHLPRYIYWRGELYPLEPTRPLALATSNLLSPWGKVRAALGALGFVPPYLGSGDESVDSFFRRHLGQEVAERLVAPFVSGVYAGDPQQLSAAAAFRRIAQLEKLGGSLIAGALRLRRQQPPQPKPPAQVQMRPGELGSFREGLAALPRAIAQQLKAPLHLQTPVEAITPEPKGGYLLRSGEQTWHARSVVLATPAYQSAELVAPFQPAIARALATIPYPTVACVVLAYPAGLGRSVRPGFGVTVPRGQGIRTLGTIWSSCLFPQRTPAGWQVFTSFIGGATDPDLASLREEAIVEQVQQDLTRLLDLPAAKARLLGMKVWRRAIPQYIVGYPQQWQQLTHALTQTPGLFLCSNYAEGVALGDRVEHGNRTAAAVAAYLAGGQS

[2] = molecular target: Thermosynechococcus vulcanus NIES-2134 protoporphyrinogen IX oxidase CyPPO18 (SEQ ID NO: 3) variant V165C (MBP fusion) (Thermosynechococcus vestitus, UniProt Q8DLV2, V165C); assay type: biochemical; conditions: 50 μM protoporphyrinogen IX, pH 7.5, room temperature, 30 min
Thermosynechococcus vulcanus NIES-2134 protoporphyrinogen IX oxidase CyPPO18 (SEQ ID NO: 3) variant V165C (MBP fusion), sequence (Q8DLV2 entry or part of it V165C): as the sequence (Q8DLV2 entry or part of it L327T) above, with V165C, T327L counted along it

[3] = molecular target: Thermosynechococcus vulcanus NIES-2134 protoporphyrinogen IX oxidase CyPPO18, wild type, SEQ ID NO: 3 (MBP fusion) (Thermosynechococcus vestitus, UniProt Q8DLV2); assay type: biochemical; conditions: CyPPO18 WT; 50 μM protoporphyrinogen IX, pH 7.5, room temperature, 30 min
Thermosynechococcus vulcanus NIES-2134 protoporphyrinogen IX oxidase CyPPO18, wild type, SEQ ID NO: 3 (MBP fusion), sequence (Q8DLV2 entry or part of it): as the sequence (Q8DLV2 entry or part of it L327T) above, with T327L counted along it

[4] = molecular target: Thermosynechococcus elongatus PKUAC-SCTE542 protoporphyrinogen IX oxidase CyPPO19 (SEQ ID NO: 1) variant R89A (MBP fusion) (Thermosynechococcus sichuanensis, UniProt A0A7D6JSC1, R89A); experiment: biochemical
Thermosynechococcus elongatus PKUAC-SCTE542 protoporphyrinogen IX oxidase CyPPO19 (SEQ ID NO: 1) variant R89A (MBP fusion), sequence (A0A7D6JSC1 entry or part of it R89A): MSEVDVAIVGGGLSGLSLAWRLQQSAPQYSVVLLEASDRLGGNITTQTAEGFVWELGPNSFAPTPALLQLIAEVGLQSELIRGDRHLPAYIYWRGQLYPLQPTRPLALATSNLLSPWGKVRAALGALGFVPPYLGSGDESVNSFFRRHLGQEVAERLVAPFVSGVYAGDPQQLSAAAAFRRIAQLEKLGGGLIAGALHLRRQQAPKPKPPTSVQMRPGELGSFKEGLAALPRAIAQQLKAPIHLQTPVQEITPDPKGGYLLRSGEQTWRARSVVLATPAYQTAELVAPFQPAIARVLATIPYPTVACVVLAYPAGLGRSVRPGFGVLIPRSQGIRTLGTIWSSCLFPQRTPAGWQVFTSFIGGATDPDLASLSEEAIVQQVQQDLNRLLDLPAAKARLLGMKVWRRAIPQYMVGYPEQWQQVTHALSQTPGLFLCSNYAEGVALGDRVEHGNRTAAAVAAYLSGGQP

[5] = molecular target: Thermosynechococcus vulcanus NIES-2134 protoporphyrinogen IX oxidase CyPPO18 (SEQ ID NO: 3) variant A167C (MBP fusion) (Thermosynechococcus vestitus, UniProt Q8DLV2, A167C); experiment: PPO enzyme inhibition assay (IC50 for herbicides), CyPPO18 A167C fused to MBP; assay type: biochemical; conditions: 50 μM protoporphyrinogen IX, pH 7.5, room temperature, 30 min
Thermosynechococcus vulcanus NIES-2134 protoporphyrinogen IX oxidase CyPPO18 (SEQ ID NO: 3) variant A167C (MBP fusion), sequence (Q8DLV2 entry or part of it A167C): as the sequence (Q8DLV2 entry or part of it L327T) above, with A167C, T327L counted along it

[6] = molecular target: Thermosynechococcus elongatus PKUAC-SCTE542 protoporphyrinogen IX oxidase CyPPO19 (SEQ ID NO: 1) variant V305M (MBP fusion) (Thermosynechococcus sichuanensis, UniProt A0A7D6JSC1, V305M); experiment: PPO enzyme inhibition assay (IC50 for herbicides), CyPPO19 V305M fused to MBP; assay type: biochemical
Thermosynechococcus elongatus PKUAC-SCTE542 protoporphyrinogen IX oxidase CyPPO19 (SEQ ID NO: 1) variant V305M (MBP fusion), sequence (A0A7D6JSC1 entry or part of it V305M): as the sequence (A0A7D6JSC1 entry or part of it R89A) above, with A89R, V305M counted along it

Row | SMILES | IC50 [1] [nM] | IC50 [2] [nM] | IC50 [3] [nM] | IC50 ([4]; CyPPO19 R89A, 50 μM protoporphyrinogen IX, pH 7.5, room temperature, 30 min) [nM] | IC50 [5] [nM] | IC50 ([6]; CyPPO19 V305M, 50 μM protoporphyrinogen IX, pH 7.5, room temperature, 30 min) [nM] | IC50 [4] [nM] | IC50 [6] [nM]
1 | Cc1nn(-c2cc(CC(Cl)C(=O)O)c(Cl)cc2F)c(=O)n1C(F)F (stereo not drawn) [Carfentrazone] | 723 | 1220 | 566 | 857 | 1880 | 910 | – | –
2 | CCOc1cc(Oc2ccc(C(F)(F)F)cc2Cl)ccc1[N+](=O)[O-] [Oxyfluorfen] | 3600 | 502 | 103 | – | 570 | – | 602 | 732
